{"source": "patent US9596855B2", "about": "“Small molecule inhibitors of biofilm formation and the novel use of previously identified compounds for inhibition of biofilm formation and applications for drug therapy and medical device coating” (priority 2013, dated 2017)", "key": {"[1]": {"system": "V. cholerae", "assay": "co-dosing of biofilm inhibitor with sub-MIC and sub-BIC antibiotics, image-based screen"}, "[2]": {"system": "HeLa cells", "assay": "mammalian cell cytotoxicity", "assay_type": "cell-based", "conditions": "up to the highest tested concentration (250 μM)"}, "[3]": {"system": "tested strains", "assay": "bactericidal activity against tested strains", "assay_type": "cell-based", "conditions": "any of the tested strains"}, "[4]": {"system": "V. cholerae", "assay": "image-based biofilm inhibition screening platform", "assay_type": "cell-based", "procedure": "In the present study, a 1,248-member prefractionated marine natural product library was evaluated for biofilm inhibitory activity using a recently-developed image-based screening platform. […] Prefraction 1671D is a semi-purified mixture that contains mixture of several individual compounds. Prefraction 1671D was therefore subjected to one-compound-one-well ‘peak library’ fractionation using the inventors' standard protocol that automatically separates the constituents of prefractions of interest based on HPLC retention times, and connects specific constituents to observed biological activities through secondary screening.\nThis activity was coupled with a striking biofilm macrocolony phenotype, providing strong justification for purification and full structural characterization of the active constituent. It was from 1671D that “compound 5” was isolated."}}, "data": [{"smiles": "C=C1Oc2cc(OC)cc(C(=O)OC)c2NC1=O", "note": "[Compound 5]", "values": [{"measurement": "biofilm-clearing efficacy", "setting": "[1]; with sub-BIC concentrations of ceftazidime", "value": "improve"}, {"measurement": "biofilm-clearing efficacy", "setting": "[1]; with sub-BIC concentrations of ciprofloxacin", "value": "improve"}, {"measurement": "mammalian cell cytotoxicity", "setting": "[2]", "value": "no mammalian cell cytotoxicity"}, {"measurement": "bactericidal activity", "setting": "[3]", "value": "no bactericidal activity"}, {"measurement": "IC50", "setting": "[4]; Vibrio cholerae, read-out: biofilm inhibitory activity (IC50)", "value": 60.1, "unit": "µM"}, {"measurement": "biofilm phenotype (epifluorescence and confocal images)", "setting": "[4]; on treatment with compound", "value": "micro-colonies initially become less organized and less tightly packed"}]}]}
